Laboratory results: patent publication US20210024542A1 (Torcept Therapeutics, Inc., priority 2018, published 2021)

Legend:
Format in all cases: cell-based, human
U-138MG = assay: OncoPanel cell proliferation assay, U-138MG; details: U-138MG; for Cell Count Activity Area: scale 0-10
Experimental: (§1) Cells were grown in RPMI 1640, 10% FBS, 2 mM L-alanyl-L-glutamine, 1 mM Na pyruvate, or a special medium. Cells were seeded into 384-well plates and incubated in a humidified atmosphere of 5% CO2 at 37° C. Compounds were added the day following cell seeding. At the same time, a time zero untreated cell plate was generated. After a 3-day incubation period, cells were fixed and stained to allow fluorescence imaging of nuclei. Compounds (1 mM stock solutions) were serially diluted in half-log steps from the highest test concentration ([…]), and assayed over 10 concentrations with a maximum assay concentration of 0.1% DMSO. Automated fluorescence microscopy was carried out using a Molecular Devices ImageXpress Micro XL high-content imager, and images were collected with a 4× objective. 16-bit TIFF images were acquired and analyzed with MetaXpress 5.1.0.41 software.
(§2) Cell proliferation was measured by the fluorescence intensity of an incorporated nuclear dye. The output is referred to as the relative cell count, where the measured nuclear intensity is transformed to percent of control (POC) using the following formula: […]
(§3) Cellular response parameters were calculated using nonlinear regression to a sigmoidal single-site dose response model:
(§4) Where y is a response measured at concentration x, A and B are the lower and upper limits of the response, C is the concentration at the response midpoint (EC50), and D is the Hill Slope (Ref. 1).
(§5) EC50 is the test compound concentration at the curve inflection point or half the effective response (parameter C of the fitted curve solution). GI50 is the concentration needed to reduce the observed growth by half (midway between the curve maximum and the time zero value). “Cell Count Activity Area” is an estimate of the integrated area above the curve (Barretina, et al. The Cancer Cell Line Encyclopedia enables predictive modelling of anticancer drug sensitivity. Nature 483: 603-607). […] In rare instances, values <0 or >10 may be observed. […] Curve-fitting, calculations, and report generation was performed using a custom data reduction engine and MathIQ based software (AIM).

A431 = assay: OncoPanel cell proliferation assay, A431; details: for Cell Count Activity Area: A431, scale 0-10
Experimental: as §1, §2, §3, §4, §5

U2OS = assay: OncoPanel cell proliferation assay, U2OS
Experimental: as §1, with “Cells” for “Cells were grown in RPMI 1640, 10% FBS, 2 mM L-alanyl-L-glutamine, 1 mM Na pyruvate, or a special medium. Cells”
as §2, §3, §4
GI50 is the concentration needed to reduce the observed growth by half (midway between the curve maximum and the time zero value). […] In rare instances, values <0 or >10 may be observed. […] Curve-fitting, calculations, and report generation was performed using a custom data reduction engine and MathIQ based software (AIM).

EC50 (A431; Homo sapiens, A-431, 72 h, A431, 3-day incubation, read-out: Cell Count EC50) [nM]	GI50 (A431; Homo sapiens, A-431, 72 h, A431, 3-day incubation, read-out: Cell Count GI50) [nM]	IC50 (A431; Homo sapiens, A-431, 72 h, A431, 3-day incubation, read-out: Cell Count IC50) [nM]	EC50 (U2OS; Homo sapiens, 72 h, 3-day incubation, read-out: Cell Count EC50) [nM]	IC50 (U2OS; Homo sapiens, 72 h, 3-day incubation, read-out: Cell Count IC50) [nM]	SMILES	IC50 (U-138MG; Homo sapiens, U138-MG, 72 h, 3-day incubation, read-out: Cell Count IC50) [nM]	Cell Count Activity Area (U-138MG)	Cell Count Activity Area (A431)	Cell Count Activity Area (U2OS; scale 0-10)
> 1000	> 1000	> 1000	0.65	> 1000	CO[C@H]1C[C@@H]2CC[C@@H](C)[C@@](O)(O2)C(=O)C(=O)N2CCCC[C@H]2C(=O)O[C@H]([C@H](C)C[C@@H]2CC[C@@H](O)[C@H](OC)C2)CC(=O)[C@H](C)/C=C(\C)[C@@H](O)[C@@H](OC)C(=O)[C@H](C)C[C@H](C)/C=C/C=C/C=C/1C [Rapamycin, reference compound]	> 1000	3.14	0.28	3.04
					CN[C@@H]1C[C@H]2O[C@@](C)([C@@H]1OC)n1c3ccccc3c3c4c(c5c6ccccc6n2c5c31)C(=O)NC4 [Staurosporine, reference compound]		3.72	5.64	
